#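 Interpolation was linear, between the two tested concentrations surrounding the appropriate level; five concentrations were tested over 48 hours in 96-well plates. The concentration for 50% growth inhibition is given as GI50. Definition used: TGI = concentration required for complete inhibition of growth.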
# Legend:
# Assay in all cases: growth of human tumour cells (NCI), 48 h
# HT29 colon = tested on: HT29 colon
# CAKI-1 renal = tested on: CAKI-1 renal
# HL-60(TB) leukemia = tested on: HL-60(TB) leukemia
# OVCAR-3 ovarian = tested on: OVCAR-3 ovarian
# SNB-75 CNS = tested on: SNB-75 CNS
# SK-MEL-2 melanoma = tested on: SK-MEL-2 melanoma
# HCC-2998 colon = tested on: HCC-2998 colon
# NCI-H460 lung = tested on: NCI-H460 lung
# MDA-MB-231 breast = tested on: MDA-MB-231 breast
# NCI/ADR-RES ovarian = tested on: NCI/ADR-RES ovarian
SMILES,TGI (HT29 colon) [µM],TGI (CAKI-1 renal) [µM],TGI (HL-60(TB) leukemia) [µM],TGI (OVCAR-3 ovarian) [µM],TGI (SNB-75 CNS) [µM],TGI (SK-MEL-2 melanoma) [µM],TGI (HCC-2998 colon) [µM],TGI (NCI-H460 lung) [µM],GI50 (HT29 colon) [µM],GI50 (CAKI-1 renal) [µM],GI50 (HL-60(TB) leukemia) [µM],GI50 (OVCAR-3 ovarian) [µM],GI50 (SNB-75 CNS) [µM],GI50 (SK-MEL-2 melanoma) [µM],GI50 (HCC-2998 colon) [µM],GI50 (NCI-H460 lung) [µM],TGI (MDA-MB-231 breast) [µM],TGI (NCI/ADR-RES ovarian) [µM],GI50 (MDA-MB-231 breast) [µM],GI50 (NCI/ADR-RES ovarian) [µM]
CC(=O)CC(=O)CCCC(=O)Nc1ccc(Cl)cc1Cl,> 100,> 100,> 100,> 100,> 100,> 100,> 100,> 100,,,,,,,,,,,,
N.N.NCCCCN.O=C([O-])CC(=O)[O-].O=C([O-])CC(=O)[O-].[Pt+4].[Pt+4],> 100,> 100,> 100,> 100,> 100,> 100,> 100,> 100,> 100,79,11.5,> 100,> 100,> 100,97.3,9.62,,,,
COC(=O)C(=O)C(C(=O)C(=O)Nc1ccc([N+](=O)[O-])cc1[N+](=O)[O-])c1nc2ccc([N+](=O)[O-])cc2[nH]c1=O (centres undefined),> 100,> 100,> 100,> 100,84.9,,> 100,> 100,,,,,,,,,,,,
Nc1nc(SCC(=O)O)[nH]c(=O)c1N,> 100,> 100,> 100,> 100,> 100,> 100,,> 100,,,,,,,,,> 100,> 100,,
CN(C)CCN1N=Nc2cccc3cccc1c23,> 100,> 100,> 70.8,> 100,> 100,> 100,> 100,> 100,,,,,,,,,,,,
CCOC(=O)c1sc2ncn(Cc3cccc(Cl)c3)c(=O)c2c1C,33.4,19.2,31.9,25.1,29.9,29.1,,39.7,19.3,6.19,18,12.6,16.4,15.1,,18.7,26.4,20.7,13.6,7.78
O=C(Nc1ncc([N+](=O)[O-])s1)c1cccc([N+](=O)[O-])c1,97.2,22.7,8.27,> 100,88,,> 100,> 100,4.43,3.7,2.35,3.18,10.7,,3.2,2.8,54.5,> 100,5.12,3.32
O=C1C2c3[nH]c4ccccc4c3C3CCSCC3C2C(=O)N1c1ccccc1 (centres undefined),> 100,> 100,> 100,> 100,44.7,> 100,,> 100,,,,,,,,,,,,
CC(=O)C(C(=N)C#N)C(=O)Nc1ccccc1 (centres undefined),> 100,> 100,,> 100,> 100,> 100,,> 100,,,,,,,,,> 100,> 100,,

# From PubChem BioAssay (NCI)
